Reference: patent US20140309296A1, “BUDIODARONE FORMULATIONS” (Armetheon, Inc., priority 2013, published 2014)
“And” between values parts separate entries of the source, which are not always exact repeats. Equal entries are not always repeated. Where two headings read alike, the source gives them in different places.

What was measured:
[1] = Pre-formed 3/1 benzyl alcohol/budiodarone composition, solubility in water (Example 7); type: physicochemical; conditions: 25 mg/ml budiodarone, 0.92% (v/v) benzyl alcohol, pre-mixed before water is added
Description: A clear solution containing 25 mg/ml of budiodarone and 0.92% (v/v) of benzyl alcohol (molar ratio of 3/1) was prepared. In this example, the association between budiodarone and benzyl alcohol was pre-formed before water is added.
Methanol (5 ml), budiodarone tartrate (250 mg, 0.293 mmole), and benzyl alcohol (92 μl, 0.880 mmole) were mixed. In this mixture, the molar ratio of benzyl alcohol to budiodarone was 3/1. Methanol was removed at 36° C. under partial vacuum (30 mm Hg) to form a clear oily residue. The residue was left at room temperature under high vacuum (1 mmHg) for 1 hour to remove traces of methanol. Water (10 ml), is then added, and the sample is vortexed for 3×10 sec.
In order to confirm the solubility of budiodarone and the molar ratio between benzyl alcohol and budiodarone, the sample was analyzed by HPLC. The analysis was performed immediately after preparation of the solution. An aliquot of the solution was centrifuged as described above in order to remove insoluble material.

[2] = molecular target: cytochrome P450 2C9 (CYP2C9) (Homo sapiens, UniProt P11712); conditions: cited from earlier work
[3] = tested on: sodium, potassium, and calcium ion channels; conditions: animals; cited from earlier work
[4] = Solubility of budiodarone tartrate in different co-solvents (Example 5); type: physicochemical; conditions: co-solvent 3.6% to 14.4% in water, 25 mg/ml, 24 hours
Description: Co-solvents that are routinely used in injectable pharmaceutical preparations were studied. These were dimethylacetamide (DMA), dimethylsulfoxide (DMSO), ethanol (EtOH), and N-methylpyrrolidone (NMP). Samples were prepared as described in Table 4 below.
Samples were prepared by mixing all three components together as in previous examples, using a vortexer at maximum speed for 3×10 sec. Samples were then left in the dark for 24 hours and analyzed by HPLC following centrifugation to precipitate any insoluble material.

[5] = cited from earlier work
[6] = Solubility of budiodarone tartrate in water containing various amounts of benzyl alcohol (Example 3); type: physicochemical
Description: Three series of samples were prepared. […] The vials were then capped and the mixtures were vortexed on a VWR Genie 2 vortexer at maximum speed for 3×10 sec duration. The final concentrations of budiodarone were 25 mg/ml, 50 mg/ml, and 100 mg/ml in water containing benzyl alcohol from 0.5% to 11% v/v. The vials were kept in the dark for 24 hours and analyzed by HPLC as per Example 1 Conditions 1.
The results are shown in FIG. 1, where the amount of budiodarone in solution is plotted as a function of the benzyl alcohol concentration. […] For example, at 25 mg/ml, budiodarone is soluble in approximately 1.5% to 4.5% v/v of benzyl alcohol. At 50 mg/ml, budiodarone is soluble in approximately 3% to 6% benzyl alcohol. At 100 mg/ml, budiodarone is soluble in approximately 4% to 8% benzyl alcohol.

[7] = Solubility of budiodarone tartrate and benzyl alcohol in solvents of different ionic strengths (Example 4); type: physicochemical; conditions: 5/1 benzyl alcohol, nominal 25 mg/ml, 1 hour
Description: To find out, five vials, each one containing budiodarone tartrate (200 mg, 0.234 mmoles) and benzyl alcohol (122 μl, 1.173 mmoles) were prepared. The molar ratio was therefore 5/1. To each of these vials was added 4 ml of water and the vials were vortexed, resulting in clear solutions containing 50 mg/ml of budiodarone tartrate and benzyl alcohol (molar ratio of 5/1). Then, 4 ml of one of the following solvents was added: 30 mM acetate buffer pH 5.2, 30 mM phosphate buffer saline pH 7.4, 30 mM Tris.HCl buffer pH 7.5, 1.8% sodium chloride (saline solution), and 10% dextrose solution (D10W) resulting in 15 mM concentration of buffer, 0.9% concentration of sodium chloride, and 5% concentration of dextrose (D5W), respectively.
Upon addition of an ionic solvent, all the samples except the D5W sample became turbid. The vials were then vortexed at high speed (3×10 sec) and left to stand for 1 hour. Then they were vortexed again (3×10 sec) and a 1-ml aliquot from each vial was centrifuged at 13,000 rpm for 10 min. A small aliquot of the clear supernatant was diluted 25-fold with methanol and analyzed by HPLC (Conditions 3). The remaining concentrations of budiodarone in the samples were as follows: […]

[8] = cited from earlier work; remark: listed apart in the source
[9] = cited from earlier work; for tolerability: oral, up to 600 mg BID
[10] = tested on: patients with paroxysmal atrial fibrillation (PAF); conditions: cited from earlier work
[11] = 600 mg BID, Treatment Months 1-3, ITT
[12] = 600 mg BID, Treatment Months 1-3, mITT

Sequence of cytochrome P450 2C9 (CYP2C9) (P11712 whole entry): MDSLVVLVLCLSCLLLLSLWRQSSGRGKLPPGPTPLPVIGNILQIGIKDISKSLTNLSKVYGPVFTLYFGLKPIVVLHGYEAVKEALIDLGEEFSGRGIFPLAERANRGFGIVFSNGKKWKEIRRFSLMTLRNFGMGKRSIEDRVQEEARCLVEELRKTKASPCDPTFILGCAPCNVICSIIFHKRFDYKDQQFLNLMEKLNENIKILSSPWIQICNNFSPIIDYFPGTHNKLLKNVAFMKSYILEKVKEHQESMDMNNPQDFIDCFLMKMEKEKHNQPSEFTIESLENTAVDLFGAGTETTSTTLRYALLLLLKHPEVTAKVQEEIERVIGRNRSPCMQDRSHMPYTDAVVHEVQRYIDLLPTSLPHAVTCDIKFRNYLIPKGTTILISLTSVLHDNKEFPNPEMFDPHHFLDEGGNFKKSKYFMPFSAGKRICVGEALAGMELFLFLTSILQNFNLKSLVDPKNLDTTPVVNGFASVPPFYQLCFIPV

For `CC[C@H](C)OC(=O)Cc1oc2ccccc2c1C(=O)c1cc(I)c(OCCN(CC)CC)c(I)c1` [budiodarone, (1S)-1-methylpropyl 2-(3-{4-[2-(diethylamino)ethoxy]-3,5-diiodobenzoyl}benzofuran-2-yl)acetate], the “solubility in water of pre-formed 3/1 molar ratio” value [1] is given as “water soluble”, the “inhibition of CYP2C9” value [2] is given as “inhibitor” and the atrial effects [3] is given as “increased St-A and A-H intervals”. For the same compound, the “inhibition of sodium, potassium, and calcium ion channels” value [3] was “inhibition comparable with amiodarone”, the “left and right atrial refractoriness” value [3] was “increased left and right atrial refractoriness comparable with amiodarone” and the ventricular effects [3] was “increased MAPD90 and QT-interval”. For the same compound, the “amount of solubilized budiodarone in the presence of DMA, DMSO, EtOH, or NMP” value [4] was “not significantly different from the amount solubilized in water alone”, the “PR interval, reduction from baseline” value ([5]; 200 mg bid) was 16.6+23.9% and the “PR interval, reduction from baseline” value ([5]; 400 mg bid) was 11.4+22.6%. The “PR interval, reduction from baseline” value ([5]; 600 mg bid) was 27.0+32.1%, the “PR interval, reduction from baseline” value ([5]; 800 mg bid) was 35.1 ± 30.9% and the “proarrhythmia, clinical hypothyroidism, or hyperthyroidism” value ([5]; 200 to 800 mg bid) was “no cases”. For the same compound, the “serious AEs” value ([5]; 200 to 800 mg bid) was “no serious AEs related to study drug”, the tolerability ([5]; 200 to 800 mg bid) was “generally well tolerated” and the “changes in HR, QRS, QT, or QTc” value ([5]; between baseline and dosing or washout) was “no significant changes”. For the same compound, the thyroid-stimulating hormone ([5]; three patients, outside the normal range) was “dose-responsive increases”, the “PR interval, reduction from baseline” value ([5]; washout) was 30.7 ± 24.3% and the “molar ratio above which budiodarone was not fully soluble in water (phase separation)” value [6] was “approximately 11/1”. For the same compound, the “lower limit of the molar ratio of benzyl alcohol to budiodarone that forms in solution” value ([6]; 25-100 mg/ml) was “approximately 5/1”, the “remaining concentration of budiodarone” value ([7]; 0.9% saline solution) was less than 1 mg/mL and the “remaining concentration of budiodarone” value ([7]; Acetate buffer pH5.2 (15 mM)) was less than 1 mg/mL. For the same compound, the “remaining concentration of budiodarone” value ([7]; D5W) was 26.6 mg/mL, the “remaining concentration of budiodarone” value ([7]; Phosphate buffer saline pH 7.4 (15 mM)) was less than 1 mg/mL and the “remaining concentration of budiodarone” value ([7]; Tris.HCl buffer pH7.5 (15 mM)) was less than 1 mg/mL. For the same compound, the Mean trough level ([8]; 200 mg bid oral) was 2.4 ± 0.9 ng/mL, the Mean trough level ([8]; 400 mg bid oral) was 5.2 ± 1.7 ng/mL and the Mean trough level ([8]; 600 mg bid oral) was 13.1 ± 5.6 ng/mL. For the same compound, the Mean trough level ([8]; 800 mg bid oral) was 19.8 ± 17.9 ng/mL, the trough level ([8]; washout) was 0.3+0.4 ng/mL and the creatinine ([9]; BUN unchanged) was “reversible elevation”. The ALT ([9]; appeared to be dose related) was “mild, reversible increase”, the tolerability [9] was “safe and well tolerated” and the tolerability ([9]; listed as ATI-2042) was “well tolerated”. The tissue accumulation ([9]; slit lamp examination at the end of the treatment period) was “no evidence of budiodarone tissue accumulation”, the corneal deposits ([9]; slit-lamp examinations) was “No patient treated with ATI-2042 developed corneal deposits” and the “decrease in AFB” value ([10]; 200 mg BID, mITT population, not statistically significant) was 10%. The “median percent reduction from baseline in AT/AF burden” value ([10]; 400 mg BID, Treatment Months 1-3, ITT population) was 54%, the “median percent reduction from baseline in AT/AF burden” value ([10]; 400 mg BID, Treatment Months 1-3, mITT population) was 54% and the “median percent reduction in AT/AF burden” value ([10]; 600 mg BID, Treatment Month 3, ITT population, listed as ATI-2042) was 80% and 83%. For the same compound, the “median percent reduction in AT/AF burden” value ([10]; 600 mg BID, Treatment Month 3, mITT population) was 83%, the “median percent reduction from baseline in AT/AF burden” value ([10]; 600 mg BID, Treatment Months 1-3, ITT population) was 74% and the “median percent change from baseline in duration of AT/AF episodes” value [10, 11] was −51.3%. For the same compound, the “median percent change from baseline in the number of AT/AF episodes” value [10, 11] was −52.9%, the “median percent increase in the duration of NSR” value [10, 11] was 208.8% and the “median percent reduction from baseline in AT/AF burden” value ([10]; 600 mg BID, Treatment Months 1-3, mITT population) was 75%. The “median percent change from baseline in duration of AT/AF episodes” value [10, 12] was −51.3%, the “median percent change from baseline in the number of AT/AF episodes” value [10, 12] was −62.1% and the “median percent increase in the duration of NSR” value [10, 12] was 241.8%. For the same compound, the “decrease in number of AT/AF episodes (median percent change from baseline, FIG. 12)” value ([10]; 600 mg BID, all three treatment months) was “more than 60%”, the “decrease in duration of episodes (FIG. 12)” value (“decrease in duration” for short) ([10]; 600 mg BID, treatment month 1) was “more than 50%” and the “decrease in duration” value ([10]; 600 mg BID, treatment month 2) was “more than 70%”. For the same compound, the “decrease in duration” value ([10]; 600 mg BID, treatment month 3) was roughly 70%, the “mean episode duration (FIG. 13)” value ([10]; 600 mg, down from nearly 24) was “less than 1 hour” and the “median AF episode duration” value ([10]; 600 mg, month 3) was 0. The “reduction of number and duration of AF episodes below baseline (FIG. 12)” value ([10]; 600 mg) was “about 70%”, the “patients a lot or completely satisfied with the test medication (Patient GCI Scale)” value ([10]; ITT population, dose group not stated) was 60.0% and the “patients reporting a lot of improvement or complete relief (Patient GCI Scale)” value ([10]; dose group not stated) was 46.7%. The AFB after washout ([10]; each of the three dose groups, one-month washout period) was “returned to essentially the baseline values”.
